# Patent publication US8507533B2, “Glucagon receptor modulators” (Pfizer Inc., priority 2011, dated 2013)
# Experiments:
# human glucagon receptor [1] = biological target: T1, human glucagon receptor (Homo sapiens (Human), UniProt P47871); test: Glucagon cAMP Assay (Cisbio cAMP detection); format: cell-based; conditions: CHOK1 cells stably transfected with the human glucagon receptor; block of glucagon induced cAMP production; Kb by modified Cheng-Prusoff equation
# human glucagon receptor [2] = biological target: T1, human glucagon receptor; test: Human Glucagon SPA Assay (binding of [125I]Glucagon-Cex); conditions: membrane from chem-1 cells stably transfected with the human glucagon receptor, Ki by Cheng-Prusoff equation
# T1 sequence (P47871 26-477): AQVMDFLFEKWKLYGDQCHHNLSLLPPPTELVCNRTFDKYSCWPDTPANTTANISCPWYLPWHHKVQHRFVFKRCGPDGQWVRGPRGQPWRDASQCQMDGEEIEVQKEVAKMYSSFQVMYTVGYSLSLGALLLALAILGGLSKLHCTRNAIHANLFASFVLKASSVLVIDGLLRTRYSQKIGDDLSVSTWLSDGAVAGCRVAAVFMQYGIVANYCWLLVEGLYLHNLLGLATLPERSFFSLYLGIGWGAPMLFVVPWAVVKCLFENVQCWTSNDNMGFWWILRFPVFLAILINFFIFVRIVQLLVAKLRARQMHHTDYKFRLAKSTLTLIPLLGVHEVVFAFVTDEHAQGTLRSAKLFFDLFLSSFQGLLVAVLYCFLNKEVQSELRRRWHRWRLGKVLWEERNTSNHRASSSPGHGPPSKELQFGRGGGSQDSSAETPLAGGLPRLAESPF
Kb (human glucagon receptor [1]),Ki (human glucagon receptor [2]),Compound
247 nM,51 nM,"Cc1cc(OC(c2ccc(C(=O)NCCC(=O)O)cc2)C2CCCC2)cc(C)c1-n1cnc(C(F)(F)F)c1 (stereo not drawn) [Example 131, (+\−)-3-(4-(cyclopentyl(3,5-dimethyl-4-(4-(trifluoromethyl)-1H-imidazol-1-yl)phenoxy)methyl)benzamido)propanoic acid]"
153 nM,132 nM,"CCCC(Nc1ccc(-n2cc(-c3ccccc3)cn2)nc1)c1ccc(C(=O)NCCC(=O)O)cn1 (stereo not drawn) [Example 132, (+\−)-3-(6-(1-(6-(4-phenyl-1H-pyrazol-1-yl)pyridin-3-ylamino)butyl)nicotinamido)propanoic acid]"
147 nM,354 nM,"CCCC(Oc1ccc(-n2cc3cccc(Cl)c3n2)cc1)c1ccc(C(=O)NCCC(=O)O)cc1 (stereo not drawn) [Example 139, (+\−)-3-(4-(1-(4-(7-chloro-2H-indazol-2-yl)phenoxy)butyl)benzamido)propanoic acid]"
154 nM,62.8 nM,"CCCC(Oc1ccc(-n2cc3cc(Cl)ccc3n2)cc1)c1ccc(C(=O)NCCC(=O)O)cc1 (stereo not drawn) [Example 140, (+\−)-3-(4-(1-(4-(5-chloro-2H-indazol-2-yl)phenoxy)butyl)benzamido)propanoic acid]"
586 nM,89.5 nM,"CCCC(Oc1cc(C)c(-n2cnc(C(F)(F)F)c2)c(C)c1)c1ccc(C(=O)NCCC(=O)O)cc1 (stereo not drawn) [Example 141, (+\−)-3-(4-(1-(3,5-dimethyl-4-(4-(trifluoromethyl)-1H-imidazol-1-yl)phenoxy)butyl)benzamido)propanoic acid]"
174 nM,62.6 nM,"CCCC(Oc1cc(C)c(-n2cc(C3CC3)cn2)c(C)c1)c1ccc(C(=O)NCCC(=O)O)cc1 (stereo not drawn) [Example 144, (+\−)-3-(4-(1-(4-(4-cyclopropyl-1H-pyrazol-1-yl)-3,5-dimethylphenoxy)butyl)benzamido)propanoic acid]"
423 nM,125 nM,"CCCC(Oc1cc(C)c(-n2cc(C(F)(F)F)nn2)c(C)c1)c1ccc(C(=O)NCCC(=O)O)cc1 (stereo not drawn) [Example 148, (+\−)-3-(4-(1-(3,5-dimethyl-4-(4-(trifluoromethyl)-1H-1,2,3-triazol-1-yl)phenoxy)butyl)benzamido)propanoic acid]"
730 nM,315 nM,"CCCC(Oc1ccc(-n2cc(C(F)(F)F)cn2)cc1C)c1ccc(C(=O)NCCC(=O)O)cc1 (stereo not drawn) [Example 159, 3-(4-(1-(2-methyl-4-(4-(trifluoromethyl)-1H-pyrazol-1-yl)phenoxy)butyl)benzamido)propanoic acid]"
185 nM,27.4 nM,"Cc1cc([C@@H](CC(C)C)Nc2ccc(C(=O)NCCC(=O)O)cn2)cc(C)c1-n1cc(C(F)(F)F)cn1 [Example 168, (R)-3-(6-((1-(3,5-dimethyl-4-(4-(trifluoromethyl)-1H-pyrazol-1-yl)phenyl)-3-methylbutyl)amino)nicotinamido)propanoic acid]"
1150 nM,193 nM,"Cc1cc([C@H](CC(C)C)Nc2ccc(C(=O)NCCC(=O)O)cn2)cc(C)c1-n1cc(C(F)(F)F)cn1 [Example 169, (S)-3-(6-((1-(3,5-dimethyl-4-(4-(trifluoromethyl)-1H-pyrazol-1-yl)phenyl)-3-methylbutyl)amino)nicotinamido)propanoic acid]"
167 nM,47.8 nM,"CCC[C@H](Oc1cc(C)c(-n2cc3ccccc3n2)c(C)c1)c1ccc(C(=O)NCCC(=O)O)cc1 [Example 187, (S)-3-(4-(1-(4-(2H-indazol-2-yl)-3,5-dimethylphenoxy)butyl)benzamido)propanoic acid]"
106 nM,42.2 nM,"CC1(C)CC(C(Nc2ccc(-n3cnc(C(F)(F)F)c3)nc2)c2ccc(C(=O)NCCC(=O)O)cc2)C1 (stereo not drawn) [Example 188, (+\−)-3-(4-((3,3-dimethylcyclobutyl)(6-(4-(trifluoromethyl)-1H-imidazol-1-yl)pyridin-3-ylamino)methyl)benzamido)propanoic acid]"
370 nM,109 nM,"CCCC(Oc1cc(C)c(-n2cc3ccccc3n2)c(C)c1)c1ccc(C(=O)NCCC(=O)O)cc1 (stereo not drawn) [Example 189, (+\−)-3-(4-(1-(4-(2H-indazol-2-yl)-3,5-dimethylphenoxy)butyl)benzamido)propanoic acid]"
978 nM,399 nM,"CCCC(Nc1ccc(C(=O)NCCC(=O)O)cn1)c1ccc(-n2cc(C(F)(F)F)cn2)nc1 (stereo not drawn) [Example 190, (+\−)-3-(6-(1-(6-(4-(trifluoromethyl)-1H-pyrazol-1-yl)pyridin-3-yl)butylamino)nicotinamido)propanoic acid]"
84.1 nM,44.7 nM,"O=C(O)CCNC(=O)c1ccc(C(Nc2cnc(-n3cnc(C(F)(F)F)c3)nc2)C2CCCC2)cc1 (stereo not drawn) [Example 193, 3-(4-(cyclopentyl(2-(4-(trifluoromethyl)-1H-imidazol-1-yl)pyrimidin-5-ylamino)methyl)benzamido)propanoic acid]"
